Where “and” joins values, the source holds several entries; their conditions need not be identical. Equal values may be shown once.
Columns and labels:
Format in all cases: in vivo
[1] = system: Colon 51/A; test: antitumor activity in mice against Colon 51/A
Protocol: (§1) Representative examples of the invention were tested for antitumor activity in mice according to the following procedure:
(§2) The animals were pooled, implanted subcutaneously with 30 to 60 mg tumor fragments by 12-gauge trocar, and again pooled before unselective distribution to the various treatment and control groups. For early-stage treatment, chemotherapy was started within 1 to 5 days after tumor implantation while the number of cells was relatively small (10^7 to 10^8 cells). For advanced-stage treatment, chemotherapy was delayed until the tumor became relatively large (200 to 300 mg in size). A 300-mg tumor contains approximately 3×10^8 total cells. […] Tumors were measured with a caliper weekly (or twice weekly for the more rapidly growing tumors). Mice were sacrificed when their tumors reached 1500 mg (i.e., before they can cause the animal discomfort). Tumor weights were estimated from two-dimensional measurements.
(§3) The treatment and control groups were measured when the control group tumors reached approximately 700 to 1200 mg in size (Median of Group). The median tumor weight of each group was determined (including zeros). […] A T/C value <10% is considered to indicate highly significant antitumor activity.

[2] = system: colon adenocarcinoma #38; test: antitumor activity in mice against colon adenocarcinoma #38
Protocol: as §1, §2, §3
(§4) The results are shown in Table I for pancreatic ductal adenocarcinoma #03 and in Table 2 for colon adenocarcinoma #38.

[3] = system: Mammary 16/C/Adr; test: antitumor activity in mice against Mammary 16/C/Adr (adriamycin resistant); settings: mouse, in vivo
Protocol: as §1
(§5) The animals were pooled, implanted subcutaneously with 30 to 60 mg tumor fragments by 12-gauge trocar, and again pooled before unselective distribution to the various treatment and control groups. For early-stage treatment, chemotherapy was started within 1 to 5 days after tumor implantation while the number of cells was relatively small (10^7 to 10^8 cells). For advanced-stage treatment, chemotherapy was delayed until the tumor became relatively large (200 to 300 mg in size). A 300-mg tumor contains approximately 3×10^8 total cells. Tumors within a given advanced-stage trial were within a 2.5-fold size range for 90% of the animals. Tumors were measured with a caliper weekly (or twice weekly for the more rapidly growing tumors). Mice were sacrificed when their tumors reached 1500 mg (i.e., before they can cause the animal discomfort). Tumor weights were estimated from two-dimensional measurements.
(§6) The treatment and control groups were measured when the control group tumors reached approximately 700 to 1200 mg in size (Median of Group). The median tumor weight of each group was determined (including zeros). The T/C value (weight of treated tumors over the weight of control tumors) in percent is an indication of antitumor effectiveness: A T/C equal to or less than 42% is considered significant antitumor activity by the Drug Evaluation Branch of the Division of Cancer Treatment (NCl). A T/C value <10% is considered to indicate highly significant antitumor activity. A body weight loss nadir (mean of group) of greater than 20% or greater than 20% drug-deaths is considered to indicate an excessively toxic dosage.

[4] = system: P388/adriamycin resistant leukemia; test: P388/adriamycin resistant leukemia, cells implanted i.v.; settings: for % ILS (percentage increase in lifespan) / Log10 Tumor cell kill / Wt. Loss at Nadir: 10^6 cells, i.v.→p.o. days 1, 4; for Drug Deaths: mouse, in vivo
[5] = system: pancreatic ductal adenocarcinoma #03; test: antitumor activity in mice against pancreatic ductal adenocarcinoma #03 (Panc 03); settings: for Tumor Free: 245 days of observation
Protocol: as §1, §2, §3, §4

[6] = system: Mammary Adenocarcinoma 16/C/RP; test: antitumor activity in mice against Mammary Adenocarcinoma 16/C/RP; settings: for T/C Value: i.v. 2X/day, days 3-6
Protocol: as §1, §5, §6

[7] = system: Panc 02; test: antitumor activity in mice against Panc 02; settings: i.v. bolus days 1-4; for Tumor Free: 28 days of observation
Protocol: as §1, §5, §6

[8] = system: Mammary 16/C; test: antitumor activity in mice against Mammary 16/C; settings: for Tumor Free: 23 days of observation
Protocol: as §1, §2, §3

[9] = system: Human MX-1 Mammary; test: antitumor activity in mice against Human MX-1 Mammary; settings: i.v. days 1-6 (some changed to p.o.)
Protocol: as §1, §5, §6

[10] = 66 mg/kg total, i.v. bolus days 3-6, 9, 11
[11] = 96 mg/kg total, i.v. bolus days 3-6, 9, 11
[12] = 51 mg/kg total, i.v. bolus days 6-9
[13] = 82 mg/kg total, i.v. bolus days 6-9
[14] = Table 2, i.v., total dose mg/kg by Example: 6:82, 16(a):690, 18(e):120
[15] = 79 mg/kg total, i.v. bolus days 3-4, 6-14
[16] = 124 mg/kg total, i.v. bolus days 3-4, 6-14
[17] = Table 1, average body weight 25 g, total doses as in E1
[18] = 51 mg/kg total, i.v. bolus days 1-4
[19] = 82 mg/kg total, i.v. bolus days 1-4
[20] = 147 mg/kg total, i.v. days 3-7 (some changed to p.o.)
[21] = 220 mg/kg total, i.v. days 3-7 (some changed to p.o.)
[22] = 330 mg/kg total, i.v. days 3-7 (some changed to p.o.)
[23] = 155 mg/kg total, i.v. days 3-6 (some changed to p.o.)
[24] = 240 mg/kg total, i.v. days 3-6 (some changed to p.o.)
[25] = 420 mg/kg total, i.v. days 3-6 (some changed to p.o.)
[26] = 161 mg/kg total, i.v. days 1-4 (some changed to p.o.)
[27] = 242 mg/kg total, i.v. days 1-4 (some changed to p.o.)
[28] = 363 mg/kg total, i.v. days 1-4 (some changed to p.o.)

With `CCN(CC)CCNc1ccc(CN(C)S(C)(=O)=O)c2sc3ccccc3c(=O)c12` [Example 8(a), N-[[1-[[2-(Diethylamino)ethyl)amino]-9-oxothioxanthen-yl]methyl]N-methylmethanesulfonamide] the “T/C Value” ([1]; 250 mg/kg total, p.o. days 3-7) was 16%, the “Wt. Loss at Nadir” value ([1]; 250 mg/kg total, p.o. days 3-7) was -1.6 g/mouse and the “T/C Value” ([1]; 500 mg/kg total, p.o. days 3-7) was 0%. For the same compound, the “Wt. Loss at Nadir” value ([1]; 500 mg/kg total, p.o. days 3-7) was -4.6 g/mouse, the “T/C Value” ([2]; 112 mg/kg total, i.p. days 3-10) was 3% and the “T/C Value” ([2]; 196 mg/kg total, i.p. days 3-10) was 0%. The “T/C Value” ([2]; 275 mg/kg total, p.o. days 3-7) was 0%, the “T/C Value” ([2]; 340 mg/kg total, i.p. days 3-10) was 0% and the “T/C Value” ([2]; 550 mg/kg total, p.o. days 3-7) was 0%. For the same compound, the “Drug Deaths” value ([2]; mouse, in vivo) was 0 and the “Drug Deaths” value [3] was 5/6 and 3/6 and 0/4.
In the case of `CCN(CC)CCNc1ccc(CNS(C)(=O)=O)c2sc3ccc(OC)cc3c(=O)c12` [31(c)], the “% ILS (percentage increase in lifespan)” value ([4]; 112 mg/kg total) is reported as 0%, the “Log10 Tumor cell kill” value ([4]; 112 mg/kg total) is reported as 0 and the “Wt. Loss at Nadir” value ([4]; 112 mg/kg total) is reported as -2.7 g/mouse. For the same compound, the “% ILS (percentage increase in lifespan)” value ([4]; 248 mg/kg total) was 0%, the “Log10 Tumor cell kill” value ([4]; 248 mg/kg total) was 0 and the “Wt. Loss at Nadir” value ([4]; 248 mg/kg total) was -3.0 g/mouse. The “Drug Deaths” value ([4]; 112 mg/kg) was 0/6, the “Drug Deaths” value ([4]; 248 mg/kg) was 1/6 and the T/C [5] was 0%. For the same compound, the “Drug Deaths” value ([5]; Table 1, total doses as in E1) was 0, the “Weight Loss” value ([5]; mouse, in vivo) was 5.6 g and the “T/C Value” ([6]; 109.6 mg/kg total) was 6%. The “T/C Value” ([6]; 156.8 mg/kg total) was 5%, the “T/C Value” ([6]; 224 mg/kg total) was 0% and the “Drug Deaths” value ([6]; mouse, in vivo) was 0.
With `CCN(CC)CCNc1ccc(CNS(C)(=O)=O)c2sc3ccccc3c(=O)c12` [Example 6, N-[[1-[[2-(Diethylamino)ethyl]amino]-9-oxothioxanthen4-yl]methyl]methanesulfonamide] the “T/C Value” [1, 10] was 28%, the “Wt. Loss at Nadir” value [1, 10] was -2.3 g/mouse and the “T/C Value” [1, 11] was 14%. For the same compound, the “Wt. Loss at Nadir” value [1, 11] was -3.0 g/mouse, the “T/C Value” [2, 12] was 18% and the “Wt. Loss at Nadir” value [2, 12] was -1.2 g/mouse. The “T/C Value” [2, 13] was 1%, the “Wt. Loss at Nadir” value [2, 13] was -1.7 g/mouse and the “Drug Deaths” value ([2]; Table 2, i.v., total dose mg/kg by Example: 2:600, 5:960, 6:132, 7:840, 16(a):1000, 18(e):180) was 3/7. For the same compound, the “Drug Deaths” value [2, 14] was 1/7, the “Weight Loss” value [2, 14] was 1.7 g and the “Weight Loss” value ([2]; mouse, in vivo, iv) was 5.0 g. The “T/C Value” ([7]; 51 mg/kg total) was 42%, the “Wt. Loss at Nadir” value ([7]; 51 mg/kg total) was -1.2 g/mouse and the “Tumor Free” value ([7]; 51 mg/kg total) was 0/5. The “T/C Value” ([7]; 82 mg/kg total) was 23%, the “Wt. Loss at Nadir” value ([7]; 82 mg/kg total) was -2.0 g/mouse and the “Tumor Free” value ([7]; 82 mg/kg total) was 0/5. The “T/C Value” [5, 15] was 0%, the “Wt. Loss at Nadir” value [5, 15] was -1.0 g/mouse and the “Tumor Free” value [5, 15] was 1/5. The “T/C Value” [5, 16] was 0%, the “Wt. Loss at Nadir” value [5, 16] was -1.6 g/mouse and the “Tumor Free” value [5, 16] was 3/5. The “Weight Loss” value [5, 17] was 1.6 g, the “Drug Deaths” value ([5]; Table 1, total doses as in E1) was 0 and the “T/C Value” [8, 18] was 13%. For the same compound, the “Wt. Loss at Nadir” value [8, 18] was -1.2 g/mouse, the “Tumor Free” value [8, 18] was 0/5 and the “T/C Value” [8, 19] was 6%. The “Wt. Loss at Nadir” value [8, 19] was -3.0 g/mouse and the “Tumor Free” value [8, 19] was 0/5.
With `CCN(CC)CCNc1ccc(CNC(=O)OC)c2sc3ccc(OC)cc3c(=O)c12` [Example 36] the “Drug Deaths” value [2, 20] was 0, the “T/C Value” [2, 20] was 0% and the “Wt. Loss at Nadir” value [2, 20] was 0 g/mouse. The “Drug Deaths” value [2, 21] was 0, the “T/C Value” [2, 21] was 0% and the “Wt. Loss at Nadir” value [2, 21] was -0.8 g/mouse. The “Drug Deaths” value [2, 22] was 0, the “T/C Value” [2, 22] was 0% and the “Wt. Loss at Nadir” value [2, 22] was -3.2 g/mouse. The “Drug Deaths” value ([9]; 132 mg/kg total) was 0, the “T/C Value” ([9]; 132 mg/kg total) was 27% and the “Wt. Loss at Nadir” value ([9]; 132 mg/kg total) was -0.8 g/mouse. The “Drug Deaths” value ([9]; 297 mg/kg total) was 0, the “T/C Value” ([9]; 297 mg/kg total) was 39% and the “Wt. Loss at Nadir” value ([9]; 297 mg/kg total) was -2.4 g/mouse. For the same compound, the “Drug Deaths” value [5, 23] was 0, the “T/C Value” [5, 23] was 0% and the “Wt. Loss at Nadir” value [5, 23] was -0.4 g/mouse. For the same compound, the “Drug Deaths” value [5, 24] was 0, the “T/C Value” [5, 24] was 0% and the “Wt. Loss at Nadir” value [5, 24] was -0.4 g/mouse. The “Drug Deaths” value [5, 25] was 3/5, the “T/C Value” [5, 25] was 0% and the “Wt. Loss at Nadir” value [5, 25] was -5.6 g/mouse. For the same compound, the “Weight Loss” value [5, 17] was 0.4 g, the “Drug Deaths” value ([5]; Table 1, total doses as in E1) was 0 and the “Drug Deaths” value [8, 26] was 0. For the same compound, the “T/C Value” [8, 26] was 9%, the “Wt. Loss at Nadir” value [8, 26] was -0.4 g/mouse and the “Drug Deaths” value [8, 27] was 1/5. The “T/C Value” [8, 27] was 8%, the “Wt. Loss at Nadir” value [8, 27] was -1.2 g/mouse and the “Drug Deaths” value [8, 28] was 2/5. The “T/C Value” [8, 28] was 2% and the “Wt. Loss at Nadir” value [8, 28] was -2.4 g/mouse.
